In test [1] the test system is I-κBα degradation. Nature of the test: I-κBα degradation after LPS in rats. Format: in vivo, rat. As to conditions: LPS 1 μg/kg + DDB 100 mg/kg, 2 h prior to LPS. As for the experimental part: (§1) Translocation of NF-κB to the nucleus was preceded by phosphorylation and proteolytic degradation of the I-κBα subunit. This test was conducted in order to ascertain whether the effect of DDB on NF-κB activation is associated with the inhibition of I-κBα degradation. The level of I-κBα protein was reduced 30 min after the treatment of rats with LPS (1 μg/kg). In contrast, treatment with DDB 2 h prior to LPS treatment attenuated the decrease in I-κBα protein by LPS. Also with RAW264.7 cells, DDB inhibited the degradation of I-κBα protein in a concentration-dependent manner at the concentrations of 0.3 to 1 mM.

The subject of test [2] is TGF-β mRNA expression. Put plainly: Effect of oltipraz/DDB combinations on TGF-β mRNA expression (quantitative RT-PCR) in DMN-administered animals. Format: in vivo. An excerpt:
As addressed above, TGF-β is a cytokine that causes hepatic fibrosis and is known to be associated with hepatic fibrosis development.
However, as the DDB to oltipraz ratio increases, the inhibition of TGF-β expression is progressively lost. In the animal group administered with DDB alone, TGF-β expression was not inhibited. Therefore, inhibition of TGF-β expression is considered to be caused by oltipraz. On this ground, the best combination ratio of oltipraz to DDB is 5:1 (Table 9).

The test system of test [3] is NF-κB activation. Put plainly: LPS-inducible NF-κB activation in rat liver (EMSA). Format: in vivo. To be noted: 2 h prior to LPS. As for the experimental part: It is known that NF-κB activation is associated with inflammatory responses. To compare the NF-κB activity in the liver tissue when DDB is administered with that when DDB is not administered, the following test was conducted. SD male rats with weight of about 150 g were used. For one group 7 rats were used. For the control group (vehicle administered) and test group (20 to 100 mg/kg/day of DDB administered), the NF-κB activity in accordance with the treatment of endotoxin (lipopolysaccharide, LPS) was measured by using Electrophoresis Mobility Shift Assay (EMSA).

In test [4] the test system is NF-κB activation in Raw264.7 cells. Nature of the test: LPS-induced NF-κB DNA binding activity in Raw264.7 cells. Format: cell-based. As for the experimental part:
Stimulation of Raw264.7 cells with […] of LPS caused an increase in DNA binding activity of NF-κB after 30 min to 1 h. DDB at the concentrations of 0.1, 0.3 and 1 mM inhibited NF-κB activity in a concentration-dependent manner.

The test system of test [5] is TNF-α production. Nature of the test: Plasma TNF-α after LPS in rats (ELISA). As to conditions: for plasma TNF-α level: LPS 1 μg/kg i.v., 2 h after administration; for % inhibition of LPS-induced plasma TNF-α elevation: Table 6, TNF-α production in plasma. Format: in vivo, rat. As for the experimental part: (§2) TNF-α is the principal mediator of the responses to LPS and is involved in inflammatory processes. It was determined by ELISA whether the amount of TNF-α released into blood decreases when NF-κB activity was inhibited by DDB. A single dose of LPS treatment (1 μg/kg, i.v.) increased the TNF-α level from 35 to 5160 pg per ml of plasma 2 h after administration. DDB treatment at a dose of 20, 50 or 100 mg/kg prevented the elevation of plasma TNF-α level by LPS, resulting in 1350, 1230 or 690 pg per ml of plasma, respectively. With the RAW264.7 cells, DDB decreased the production of TNF-α by LPS.

In test [6] the test system is TNF-α production in RAW264.7 cells. Put plainly: TNF-α production by LPS in RAW264.7 cells. Format: cell-based. As to conditions: Table 6, TNF-α production; LPS + DDB 1.0 mg/kg as printed. As for the experimental part: as §2
Test [7] deals with I-κBα degradation in RAW264.7 cells. Nature of the test: I-κBα degradation after LPS in RAW264.7 cells. Format: cell-based. As for the experimental part: as §1
The subject of test [8] is TGF-β expression in RAW264.7 macrophage cells. Put plainly: Inhibition of TGF-β expression in RAW264.7 macrophage cells. Format: cell-based.
In test [9] the test system is DMN induced hepatic fibrosis. To be noted: 3 times a week; for Fibrosis Values: score 0-4. As for the experimental part:
The degree of fibrosis was determined by evaluating the fibrosis and Knodell scores, which show degrees of liver damage and fibrosis.
Each value is represented by the average ± standard deviation. The number of animals used was 8 to 16. The significance of each group is determined by the Newman-Keuls test of multiple analysis. *p<0.05, **p<0.01. Degree of fibrosis 0=Normal, 1=Presence of weak fibrous tissue, 2=Moderate presence of fibrous tissue, 3=Obvious presence of fibrous tissue, 4=Evidence of severe fibrosis. Sum of values from periportal bridging (Greatest=10), intralobular cell loss (Greatest=4), portal inflammation (Greatest=4), and fibrosis (Greatest=4) yields the Knodell score.

The test system of test [10] is TGF-β 1 mRNA expression. To be noted: liver tissue; 100 mg/kg oltipraz given 18 hours after DMN, observed 24 hours later.
Test [11] has as its system DMN induced hepatic fibrosis. Nature of the test: animal or person. An excerpt:
Plasma gamma-glutamyl transpeptidase (gamma-GT) activity and bilirubin content are used as indicators of hepatic functionality.
Each value is represented by the average ± standard deviation. The number of animals used ranged from 8 to 16. The significance of each group was indicated by the Newman-Keuls test of multiple analysis. The significance markers are: *=p<0.05 compared to control, #=p<0.05 compared to DMN treated group.
The anti-fibrotic activity of the oltipraz/DDB combination was evaluated by changing the component ratio of the combination. To evaluate the effect of the combination according to the component ratio, the dosage schedule of DMN was partially modified. That is, while DMN was administered to a rat 12 times totally in dosages of 10 μl/kg per administration over a 4-week period, 3 times a week in the test examples 1 and 2, to evaluate the effect of the combination according to the component ratio, an animal model with reduced liver damage was used wherein DMN was administered to a rat 9 times totally in dosages of 10 μl/kg per administration over a 3-week period, 3 times a week, and then not administered in the remaining one week in the test example.

Where [12] appears, read: DMN 4 weeks + Oltipraz 5 mg/kg oral.
[13] abbreviates: DMN 4 weeks + Oltipraz 15 mg/kg oral.
The mark [14] stands for this setting: DMN 4 weeks + Oltipraz 50 mg/kg oral.
Where [15] appears, read: plasma, DMN 4 weeks + Oltipraz 50 mg/kg.

Where two headings read alike, the source gives them in different places. Marks after values point to notes of the source that are not given here.

As for `COC(=O)c1cc(OC)c2c(c1-c1c(C(=O)OC)cc(OC)c3c1OCO3)OCO2` [DDB, dimethyl-4,4′-dimethoxy-5,6,5′,6′-dimethylene dioxybiphenyl-2,2′-dicarboxylate], the “% inhibition of I-κBα degradation” value in test [1] is reported as 67%; in [7] (LPS 1 μg/ml + DDB 0.1 mM), 22%; in [7] (LPS 1 μg/ml + DDB 0.3 mM), 34%; in test [7] (LPS 1 μg/ml + DDB 1.0 mM) it was 65%. In addition, the “% Inhibition of TGF-β mRNA expression” value in test [2] (DMN + DDB 30 mg/kg) is 0%. Further, the “TGF-β expression (result in words)” value in test [2] (DMN + DDB alone) was “not inhibited”. For the same compound, the “% inhibition of NF-κB activation” value in test [3] (LPS 1 μg/kg + DDB 20 mg/kg) worked out at 42%; in test [3] (LPS 1 μg/kg + DDB 50 mg/kg), 63%; in [3] (LPS 1 μg/kg + DDB 100 mg/kg), 73%; in test [4] (LPS 1 μg/ml + DDB 0.1 mM), 33%; in test [4] (LPS 1 μg/ml + DDB 0.3 mM) it was 35%; in test [4] (LPS 1 μg/ml + DDB 1.0 mM), 65%. Besides, the “plasma TNF-α level” value is listed as 1350 pg per ml of plasma in [5] (DDB 20 mg/kg), 1230 pg per ml of plasma in test [5] (DDB 50 mg/kg) and 690 pg per ml of plasma in [5] (DDB 100 mg/kg). Besides, the results for the “% inhibition of LPS-induced plasma TNF-α elevation” value in test [5] (LPS 1 μg/kg + DDB 20 mg/kg), in test [5] (LPS 1 μg/kg + DDB 50 mg/kg) and in test [5] (LPS 1 μg/kg + DDB 100 mg/kg) were 74%, 76% and 87%, respectively. Also, the “% inhibition of TNF-α production” value in test [6] was determined as 65%.

For the compound `O=C(O)CN(CCOCCOCCN(CC(=O)O)CC(=O)O)CC(=O)O` [EGTA], the “TGF-β Inhibition Percentage (%)” value in test [8] (EGTA 1 mM) is listed as 80%.

Take `O=c1c(-c2ccc(O)cc2)coc2cc(O)cc(O)c12` [Genistein, genistein]: the inhibition at 100 µM in test [8] (Mus musculus, Genistein 100 μM, read-out: TGF-β Inhibition Percentage (%)) worked out at 80%.

Turning to `Cc1c(-c2cnccn2)ssc1=S` [Oltipraz, 5-(2-pyrazinyl)-4-methyl-1,2-dithiol-3-thione], the inhibition at 30 µM in [8] (Mus musculus, Oltipraz 30 μM, read-out: TGF-β Inhibition Percentage (%)) was found to be 30%. Further, the inhibition at 100 µM in test [8] (Mus musculus, Oltipraz 100 μM, read-out: TGF-β Inhibition Percentage (%)) was 60%. Also, the “TGF-β expression (result in words)” value in test [2] (DMN + 30 mg/kg of oltipraz) is “completely inhibited”. Moreover, in [2] (DMN + oltipraz 30 mg/kg), the “% Inhibition of TGF-β mRNA expression” value was found to be 65%. For the same compound, in test [9] (setting [12]), the “Knodell Values” is 11.1 ± 1.7* and the “Fibrosis Values” is listed as 3.1 ± 0.4*. Further, in [9] (setting [13]), the “Knodell Values” is 12.1 ± 1.9* and the “Fibrosis Values” is given as 2.9 ± 0.8*. Also, in [9] (setting [14]), the “Knodell Values” is 8.0 ± 1.6** and the “Fibrosis Values” is listed as 2.5 ± 0.9**. For the same compound, the “DMN induced expression of TGF-β 1 mRNA” value in test [10] is “completely inhibited”. Moreover, the “inhibition percentage of ALT increase by DMN” value in test [11] (50 mg/kg of oltipraz administered alone (stated in Test Example 7)) was 40%. Moreover, in test [11] (Rattus norvegicus, read-out: inhibition of plasma bilirubin increase), the inhibition at 50 mg/kg is 65%. For the same compound, in test [11] (setting [15]), the ALT was 116 ± 4^#, the AST is 246 ± 32^#, the Bilirubin was 0.3 ± 0.03^# and the gamma-GT is given as 2.6 ± 0.5^#.
